# Laboratory results as given in US11440940B2, “Polymyxin B component or salt thereof, and preparation and application thereof” (SPH NO.1 BIOCHEMICAL & PHARMACEUTICAL CO.,LTD., priority 2020, dated 2022).
# Read-outs that look alike come from different tables or passages of the source. Where a SMILES comes first, the peptide text is derived from it. Bridges are numbered along the chain shown (N, C = ends). [ ]: non-standard residue; d: D form. The star is where a group is joined. aThr = C[C@H](O)[C@H](N)C(=O)O; X2 = CC[C@@H](C)CC/C=C/C(=O)*; X1 = CC[C@@H](C)CCCCC(=O)*; Dab = NCC[C@H](N)C(=O)O
# How the values were obtained:
# [1] = test system: Pseudomona aeruginosa ATCC27853; format: cell-based
# Description: Furthermore, the polymyxin B1 (PMB1) and the 2′,3′-dehydropolymyxin B1 were also determined for MIC against Pseudomona aeruginosa using the microdilution broth method as instructed by CLSI. Similarly, the Pseudomona aeruginosa ATCC27853 (standard strain) was inoculated into a 96-well plate at a density of 10^6 CFU/mL, to which a PMB1 solution (as control) or a 2′,3′-dehydropolymyxin B1 solution was added to a series of final concentrations of 0.125, 0.25, 0.5, 1, 2, 4 and 8 mg/L. The 96-well plate was incubated at […] for 18-24 h, and then observed for the turbidity in each test well, where the lowest concentration of PMB1 or 2′,3′-dehydropolymyxin B1 under which the system in the test well became clear was considered as the corresponding MIC.
# [2] = test system: Acinetobacter baumannii ATCC19606; format: cell-based
# Description: Minimal inhibitory concentrations (MIC) of the polymyxin B1 (PMB1) and the 2′,3′-dehydropolymyxin B1 against Acinetobacter baumannii were determined using a microdilution broth method as instructed by Clinical & Laboratory Standards Institute (CLSI). Specifically, Acinetobacter baumannii ATCC19606 (standard strain) was inoculated into a 96-well plate at a density of […], to which a PMB1 solution (as control) or a 2′,3′-dehydropolymyxin B1 solution was added to a series of final concentrations of 0.125, 0.25, 0.5, 1, 2, 4 and 8 mg/L. The 96-well plate was incubated at 35±2° C. for 18-24 h, and then observed for the turbidity in each test well, where the lowest concentration of PMB1 or 2′,3′-dehydropolymyxin B1 under which the system in the test well became clear was considered as the corresponding MIC.
Compound,"MIC ([1]; Pseudomona aeruginosa ATCC27853 (standard strain), 96-well plate, 18-24 h, turbidity) [µg/mL]","MIC ([2]; Acinetobacter baumannii ATCC19606 (standard strain), 96-well plate, 35±2° C., 18-24 h, turbidity) [µg/mL]",MIC ([1]; ATCC27853) [µg/mL],MIC ([2]; ATCC19606) [µg/mL]
"CC[C@@H](C)CCCCC(=O)N[C@@H](CCN)C(=O)N[C@H](C(=O)N[C@@H](CCN)C(=O)N[C@H]1CCNC(=O)[C@H]([C@H](C)O)NC(=O)[C@H](CCN)NC(=O)[C@H](CCN)NC(=O)[C@H](CC(C)C)NC(=O)[C@@H](Cc2ccccc2)NC(=O)[C@H](CCN)NC1=O)[C@H](C)O [Polymyxin B1, polymyxin B1] (X1-[Dab][aThr][Dab][Dab][Dab][dF]L[Dab][Dab][aThr]; lactam 4-C)",1,1,–,–
"CC[C@@H](C)CC/C=C/C(=O)N[C@@H](CCN)C(=O)N[C@H](C(=O)N[C@@H](CCN)C(=O)N[C@H]1CCNC(=O)[C@H]([C@H](C)O)NC(=O)[C@H](CCN)NC(=O)[C@H](CCN)NC(=O)[C@H](CC(C)C)NC(=O)[C@@H](Cc2ccccc2)NC(=O)[C@H](CCN)NC1=O)[C@H](C)O [2′,3′-dehydropolymyxin B1] (X2-[Dab][aThr][Dab][Dab][Dab][dF]L[Dab][Dab][aThr]; lactam 4-C)",–,–,1,0.5
